Laboratory results taken from patent publication US11981658B2, “Substituted aminopyridine compounds as EGFR inhibitors” (YUHAN CORPORATION, priority 2021, dated 2024).
Like-named read-outs stand apart in the source and are kept apart here.

Tests used:
[1] = target: EGFR Del19/T790M/C797S (Homo sapiens, UniProt P00533, C797S/DEL746-750/T790M); assay: Biochemical EGFR kinase inhibition assay (Lance Ultra TR-FRET), triple mutant del19/T790M/C797S
Summary of the method: (§1)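 Step 1: compound in kinase buffer, 0.003–10 μM. Step 2: kinase reaction 1 h at room temperature. Step 4: TR-FRET read at 615/665 nm; IC50 calculated.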

[2] = target: EGFR L858R/T790M/C797S (Homo sapiens, UniProt P00533, C797S/L858R/T790M); assay: Biochemical EGFR kinase inhibition assay (Lance Ultra TR-FRET), triple mutant L858R/T790M/C797S
Summary of the method: as §1

[3] = target: EGFR Del19/C797S (Homo sapiens, UniProt P00533, C797S/DEL746-750); assay: Biochemical EGFR kinase inhibition assay (Lance Ultra TR-FRET), double mutant del19/C797S
Summary of the method: as §1

[4] = target: EGFR L858R/C797S (Homo sapiens, UniProt P00533, C797S/L858R); assay: Biochemical EGFR kinase inhibition assay (Lance Ultra TR-FRET), double mutant L858R/C797S
Summary of the method: as §1

[5] = target: EGFR wildtype (WT) (Homo sapiens, UniProt P00533); assay: Biochemical EGFR kinase inhibition assay (Lance Ultra TR-FRET), wildtype
Summary of the method: as §1

[6] = ATP at Km, read-out: IC50 Del19/T790M/C797S (nM), Km ATP
[7] = IC50 Del19/T790M/C797S (nM), 100 μM ATP
[8] = ATP at Km, read-out: IC50 L858R/T790M/C797S (nM), Km ATP
[9] = IC50 L858R/T790M/C797S (nM), 100 μM ATP
[10] = ATP at Km, read-out: IC50 Del19/C797S (nM), Km ATP
[11] = IC50 Del19/C797S (nM), 100 μM ATP
[12] = ATP at Km, read-out: IC50 L858R/C797S (nM), Km ATP
[13] = IC50 L858R/C797S (nM), 100 μM ATP
[14] = ATP at Km, read-out: IC50 WT (nM), Km ATP

EGFR L858R/T790M/C797S, sequence (P00533 25-1210 T790M/C797S/L858R): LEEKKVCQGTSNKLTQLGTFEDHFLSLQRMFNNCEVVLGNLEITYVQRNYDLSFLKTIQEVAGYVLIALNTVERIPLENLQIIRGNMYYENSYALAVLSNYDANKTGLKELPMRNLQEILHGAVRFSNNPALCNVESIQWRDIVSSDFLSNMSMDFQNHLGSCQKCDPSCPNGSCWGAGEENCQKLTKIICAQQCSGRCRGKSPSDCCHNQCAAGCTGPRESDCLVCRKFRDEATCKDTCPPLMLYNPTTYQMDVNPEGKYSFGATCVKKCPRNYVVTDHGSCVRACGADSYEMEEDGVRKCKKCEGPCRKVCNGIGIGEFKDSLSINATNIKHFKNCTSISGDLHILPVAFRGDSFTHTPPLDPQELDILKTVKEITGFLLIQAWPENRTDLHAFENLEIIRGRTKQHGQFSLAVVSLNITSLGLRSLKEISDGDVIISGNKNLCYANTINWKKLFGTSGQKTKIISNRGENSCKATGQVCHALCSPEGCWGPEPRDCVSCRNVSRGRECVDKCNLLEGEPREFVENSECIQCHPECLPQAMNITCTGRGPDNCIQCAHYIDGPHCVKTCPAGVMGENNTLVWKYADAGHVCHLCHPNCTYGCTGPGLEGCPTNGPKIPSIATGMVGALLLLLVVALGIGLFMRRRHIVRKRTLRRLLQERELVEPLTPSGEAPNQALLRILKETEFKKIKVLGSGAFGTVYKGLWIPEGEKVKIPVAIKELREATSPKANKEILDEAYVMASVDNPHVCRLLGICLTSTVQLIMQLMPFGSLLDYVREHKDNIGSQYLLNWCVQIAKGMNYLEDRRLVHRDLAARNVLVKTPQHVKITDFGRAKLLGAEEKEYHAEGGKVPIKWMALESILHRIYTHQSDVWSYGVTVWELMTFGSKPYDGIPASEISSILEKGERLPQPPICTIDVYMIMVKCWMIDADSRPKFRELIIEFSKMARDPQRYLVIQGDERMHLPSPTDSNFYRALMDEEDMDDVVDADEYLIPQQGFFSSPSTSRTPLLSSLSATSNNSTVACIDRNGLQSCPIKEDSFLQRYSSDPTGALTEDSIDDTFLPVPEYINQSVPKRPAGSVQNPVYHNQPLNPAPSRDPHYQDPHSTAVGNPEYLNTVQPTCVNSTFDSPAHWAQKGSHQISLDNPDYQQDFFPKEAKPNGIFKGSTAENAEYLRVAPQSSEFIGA
EGFR Del19/T790M/C797S, sequence (P00533 with tags, fused parts or gaps DEL746-750/T790M/C797S): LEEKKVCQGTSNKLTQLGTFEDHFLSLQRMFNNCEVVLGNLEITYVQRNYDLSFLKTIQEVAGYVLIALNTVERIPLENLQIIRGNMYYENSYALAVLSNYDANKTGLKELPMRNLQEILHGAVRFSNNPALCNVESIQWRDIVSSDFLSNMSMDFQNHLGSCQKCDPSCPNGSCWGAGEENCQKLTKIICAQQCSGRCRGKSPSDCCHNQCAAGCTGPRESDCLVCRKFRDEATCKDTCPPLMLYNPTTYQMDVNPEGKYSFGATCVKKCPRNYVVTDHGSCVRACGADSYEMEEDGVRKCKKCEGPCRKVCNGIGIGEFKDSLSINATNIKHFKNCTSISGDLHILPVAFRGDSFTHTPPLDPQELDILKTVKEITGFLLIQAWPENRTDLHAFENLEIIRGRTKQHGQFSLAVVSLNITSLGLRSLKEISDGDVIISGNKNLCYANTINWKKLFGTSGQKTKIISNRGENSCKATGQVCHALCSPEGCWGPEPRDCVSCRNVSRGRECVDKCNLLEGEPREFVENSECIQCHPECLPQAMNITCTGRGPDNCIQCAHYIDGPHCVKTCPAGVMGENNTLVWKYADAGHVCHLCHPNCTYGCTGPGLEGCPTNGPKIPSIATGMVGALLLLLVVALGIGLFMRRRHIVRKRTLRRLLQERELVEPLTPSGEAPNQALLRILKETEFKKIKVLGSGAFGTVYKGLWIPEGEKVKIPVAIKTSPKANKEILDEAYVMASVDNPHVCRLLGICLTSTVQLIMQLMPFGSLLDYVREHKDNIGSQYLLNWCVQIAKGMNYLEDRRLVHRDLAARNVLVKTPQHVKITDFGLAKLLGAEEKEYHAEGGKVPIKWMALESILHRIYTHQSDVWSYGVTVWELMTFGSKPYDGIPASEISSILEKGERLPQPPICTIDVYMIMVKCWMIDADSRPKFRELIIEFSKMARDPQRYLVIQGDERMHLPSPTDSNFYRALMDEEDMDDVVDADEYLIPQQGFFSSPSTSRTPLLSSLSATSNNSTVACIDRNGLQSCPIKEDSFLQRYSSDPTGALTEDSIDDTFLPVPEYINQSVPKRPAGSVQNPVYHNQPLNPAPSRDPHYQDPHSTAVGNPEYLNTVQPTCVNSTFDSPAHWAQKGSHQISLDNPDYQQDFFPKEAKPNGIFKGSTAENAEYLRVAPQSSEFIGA
EGFR L858R/C797S, sequence (P00533 25-1210 C797S/L858R): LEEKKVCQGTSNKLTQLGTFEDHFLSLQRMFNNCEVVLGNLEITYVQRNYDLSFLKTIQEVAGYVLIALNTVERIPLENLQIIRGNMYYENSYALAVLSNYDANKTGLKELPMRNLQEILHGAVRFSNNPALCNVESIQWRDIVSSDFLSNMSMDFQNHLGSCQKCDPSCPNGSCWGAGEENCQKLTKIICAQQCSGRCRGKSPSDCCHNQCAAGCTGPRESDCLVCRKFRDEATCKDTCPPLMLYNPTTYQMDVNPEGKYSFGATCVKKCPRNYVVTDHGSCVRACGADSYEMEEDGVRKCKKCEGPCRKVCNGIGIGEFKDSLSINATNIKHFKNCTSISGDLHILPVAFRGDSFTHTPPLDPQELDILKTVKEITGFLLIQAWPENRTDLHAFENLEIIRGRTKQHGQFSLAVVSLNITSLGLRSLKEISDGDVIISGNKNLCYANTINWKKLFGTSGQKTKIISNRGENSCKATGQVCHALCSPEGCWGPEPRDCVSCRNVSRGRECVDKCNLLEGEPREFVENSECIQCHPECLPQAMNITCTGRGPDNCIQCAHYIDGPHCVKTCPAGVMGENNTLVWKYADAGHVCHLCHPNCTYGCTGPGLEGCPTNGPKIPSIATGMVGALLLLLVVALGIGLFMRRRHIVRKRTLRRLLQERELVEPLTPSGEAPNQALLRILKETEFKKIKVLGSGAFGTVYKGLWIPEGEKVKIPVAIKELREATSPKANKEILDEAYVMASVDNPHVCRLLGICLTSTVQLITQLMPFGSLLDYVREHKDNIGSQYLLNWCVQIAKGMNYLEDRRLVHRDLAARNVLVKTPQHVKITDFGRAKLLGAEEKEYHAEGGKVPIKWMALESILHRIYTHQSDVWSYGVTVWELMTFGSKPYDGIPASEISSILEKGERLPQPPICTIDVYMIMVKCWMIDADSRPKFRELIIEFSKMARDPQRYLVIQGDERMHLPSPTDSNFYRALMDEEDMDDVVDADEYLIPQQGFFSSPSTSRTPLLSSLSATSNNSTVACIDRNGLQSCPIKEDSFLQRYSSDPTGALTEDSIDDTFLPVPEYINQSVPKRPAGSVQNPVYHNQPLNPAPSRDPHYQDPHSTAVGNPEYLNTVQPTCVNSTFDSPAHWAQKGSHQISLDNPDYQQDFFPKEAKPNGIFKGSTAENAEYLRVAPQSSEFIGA
EGFR Del19/C797S, sequence (P00533 with tags, fused parts or gaps DEL746-750/C797S): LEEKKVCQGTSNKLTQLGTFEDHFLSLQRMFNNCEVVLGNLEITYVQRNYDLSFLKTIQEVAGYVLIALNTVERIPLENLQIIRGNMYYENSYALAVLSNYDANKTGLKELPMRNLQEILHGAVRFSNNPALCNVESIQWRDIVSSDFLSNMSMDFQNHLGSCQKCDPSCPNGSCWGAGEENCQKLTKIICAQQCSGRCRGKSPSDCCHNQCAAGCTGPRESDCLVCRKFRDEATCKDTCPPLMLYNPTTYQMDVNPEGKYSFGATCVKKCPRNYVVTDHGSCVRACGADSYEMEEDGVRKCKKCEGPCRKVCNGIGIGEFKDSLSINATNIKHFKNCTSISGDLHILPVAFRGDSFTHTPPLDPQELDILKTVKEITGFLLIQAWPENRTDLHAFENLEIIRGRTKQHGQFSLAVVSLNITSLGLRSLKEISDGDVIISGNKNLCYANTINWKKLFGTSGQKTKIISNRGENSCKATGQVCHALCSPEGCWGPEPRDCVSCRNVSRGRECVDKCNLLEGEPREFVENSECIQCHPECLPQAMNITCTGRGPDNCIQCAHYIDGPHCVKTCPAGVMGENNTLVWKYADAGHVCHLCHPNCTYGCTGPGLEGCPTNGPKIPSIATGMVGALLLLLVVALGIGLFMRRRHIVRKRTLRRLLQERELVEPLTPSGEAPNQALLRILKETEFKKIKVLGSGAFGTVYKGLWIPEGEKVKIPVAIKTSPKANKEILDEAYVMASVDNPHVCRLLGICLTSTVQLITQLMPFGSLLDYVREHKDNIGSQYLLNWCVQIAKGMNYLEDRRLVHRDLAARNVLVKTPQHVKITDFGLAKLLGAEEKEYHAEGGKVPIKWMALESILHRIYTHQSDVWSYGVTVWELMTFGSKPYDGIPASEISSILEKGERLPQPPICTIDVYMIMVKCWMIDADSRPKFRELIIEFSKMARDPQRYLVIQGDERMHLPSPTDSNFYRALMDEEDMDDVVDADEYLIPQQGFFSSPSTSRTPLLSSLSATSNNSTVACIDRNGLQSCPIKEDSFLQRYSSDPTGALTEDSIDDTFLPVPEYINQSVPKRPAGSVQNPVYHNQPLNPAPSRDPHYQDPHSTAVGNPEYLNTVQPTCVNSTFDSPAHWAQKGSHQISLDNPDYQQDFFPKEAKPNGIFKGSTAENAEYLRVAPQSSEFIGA

Row | Structure (SMILES) | IC50 [1, 6] [nM] | IC50 [1, 7] [nM] | IC50 [2, 8] [nM] | IC50 [2, 9] [nM] | IC50 [3, 10] [nM] | IC50 [3, 11] [nM] | IC50 [4, 12] [nM] | IC50 [4, 13] [nM] | IC50 [5, 14] [nM] | IC50 ([5]; IC50 WT (nM), 100 μM ATP) [nM]
1 | CC1(CO)CCN(c2cc(Nc3ccnc(-c4cnn(S(=O)(=O)C5CC5)c4)n3)ncc2C#Cc2cnn(CC3CCOC3)c2)CC1 (stereo not drawn) [Example 243, (1-(2-((2-(1-(Cyclopropylsulfonyl)-1H-pyrazol-4-yl)pyrimidin-4-yl)amino)-5-((1-((tetrahydrofuran-3-yl)methyl)-1H-pyrazol-4-yl)ethynyl)pyridin-4-yl)-4-methylpiperidin-4-yl)methanol] | 0.9 | 1.4 | 0.4 | 1.8 | 0.8 | 0.7 | 0.9 | 14.7 | 4.7 | 2170
2 | CC1(CO)CCN(c2cc(Nc3ccnc(-c4cnn(S(=O)(=O)C5CC5)c4)n3)ncc2C#Cc2cnn(C3CCOC3)c2)CC1 (stereo not drawn) [Example 244, (1-(2-((2-(1-(Cyclopropylsulfonyl)-1H-pyrazol-4-yl)pyrimidin-4-yl)amino)-5-((1-(tetrahydrofuran-3-yl)-1H-pyrazol-4-yl)ethynyl)pyridin-4-yl)-4-methylpiperidin-4-yl)methanol] | 0.8 | 1.3 | 0.5 | 1.5 | 0.6 | 0.5 | 1 | 3.1 | 6 | 418
3 | CC1(CO)CCN(c2cc(Nc3ccnc(-c4cnn(S(=O)(=O)C5CC5)c4)n3)ncc2C#Cc2cnn(C3COC3)c2)CC1 [Example 245, (1-(2-((2-(1-(Cyclopropylsulfonyl)-1H-pyrazol-4-yl)pyrimidin-4-yl)amino)-5-((1-(oxetan-3-yl)-1H-pyrazol-4-yl)ethynyl)pyridin-4-yl)-4-methylpiperidin-4-yl)methanol] | 0.8 | 1.4 | 0.5 | 1.3 | 0.6 | 0.5 | 1.1 | 2.8 | 6.7 | 474
4 | CC1(CO)CCN(c2cc(Nc3ccnc(-c4cnn(S(=O)(=O)C5CC5)c4)n3)ncc2C#C[Si](C)(C)C)CC1 [Example 246, (1-(2-((2-(1-(Cyclopropylsulfonyl)-1H-pyrazol-4-yl)pyrimidin-4-yl)amino)-5-((trimethylsilyl)ethynyl)pyridin-4-yl)-4-methylpiperidin-4-yl)methanol] | 7.4 | 6.4 | 3.8 | 15.4 | 34 | 54.6 | 105 | 957 | 258 | > 10000
5 | C#Cc1cnc(Nc2ccnc(-c3cnn(S(=O)(=O)C4CC4)c3)n2)cc1N1CCC(C)(CO)CC1 [Example 247, (1-(2-((2-(1-(Cyclopropylsulfonyl)-1H-pyrazol-4-yl)pyrimidin-4-yl)amino)-5-ethynylpyridin-4-yl)-4-methylpiperidin-4-yl)methanol] | 0.1 | 0.1 | 0.1 | 0.5 | 1.3 | 1.7 | 8.1 | 42.3 | 18.7 | 8670
6 | CC1(CO)CCN(c2cc(Nc3ccnc(-c4cnn(S(=O)(=O)C5CC5)c4)n3)ncc2C#Cc2cn(CC(F)F)c3ccncc23)CC1 [Example 249, (1-(2-((2-(1-(Cyclopropylsulfonyl)-1H-pyrazol-4-yl)pyrimidin-4-yl)amino)-5-((1-(2,2-difluoroethyl)-1H-pyrrolo[3,2-c]pyridin-3-yl)ethynyl)pyridin-4-yl)-4-methylpiperidin-4-yl)methanol] | 3.1 | 2.6 | 1.1 | 1.9 | 6.9 | 7.5 | 4.7 | 29.7 | 23.9 | > 10000
